From patent publication US20020062499A1, “Methods for translational repression of gene expression in plants” (priority 2000, published 2002)

Legend:
[1] = tested on: non-transgenic parental control plant (M202); assay: Glyphosate treatment of non-transgenic parental control rice; format: in vivo; details: 64 oz./A glyphosate
Text: The anther-specific promoter P-Ta.1674-19 is amplified from wheat genomic DNA by Genome Walker™ as a HindIII/BglII fragment, digested with these two enzymes, and the fragment ligated into pMON42180 (FIG. 3) digested with the same enzymes, resulting in pMON52000. The plant expression vector pMON52001 (FIG. 27) is constructed by taking the Not I fragment containing of P-Ta. 1674-19/I-Zm.Hsp70/MS2. CP:en/T-AGRTU.nos from pMON52000 and ligating into pMON42916 (FIG. 7) digested with Not I. pMON42438 (FIG. 28) and pMON42439 (FIG. 29) are constructed by replacing the wheat P-Ta. 1674-19 promoter element of pMON52001 with corn anther-specific promoters P-700353038 and P-70053844, respectively. pMON42945 (FIG. 30) is constructed by ligating the Not I fragment consisting of P-L1482830/I-Zm.Hsp70/MS2.CP:en/T-AGRTU.nos into pMON42916. These promoter elements are isolated from wheat and corn anther DNA libraries by Genome Walker™. Rice variety M202 is transformed by Agrobacterium-mediated transformation. […] Vegetative tolerance to the glyphosate is visually evaluated 21 DAT (day after treatment) based on a scale of 0 to 5 (as discussed above). […] Male sterility is scored at maturity by counting the number of empty florets and dividing by the total number of florets (filled plus empty) in each panicle.

transgenic corn lines = assay: Field test of MS2 translation repression system transgenic corn lines; format: in vivo; details: 32 oz/acre Roundup® at the 6-8 leaf stage; transgenic TRS corn lines
Method: Field tests are conducted to evaluate the vegetative tolerance and male sterility of transgenic corn lines selected from the greenhouse tests. Lines for the field trial are selected based on previous scores showing good to excellent vegetative tolerance, very high or complete male sterility induced by glyphosate, and available seed supply. The pedigree of plants in the field test is either [(Ro×B73)×B73] or (B73×Ro). Based on these pedigrees, it is expected that half of the plants in a plot would be killed by glyphosate (formulated Roundup®) application, because they would not contain the transgene.
The field test is set up in two blocks, each block containing four groups of plots that would receive a single spray treatment. The treatments are (1) no spray, (2) 32 oz/acre Roundup® at the 1-2 leaf stage, (3) 32 oz/acre Roundup® at the 4-5 leaf stage, and (4) 32 oz/acre Roundup® at the 6-8 leaf stage. Plants are scored for male fertility when they began to flower, and scoring is repeated every 1-2 days for about eight days. Observations included the length of time between emergence of the tassel from the first plants and from the last plant in each plot. A sample of the anthers is collected from each plant, and the viability of pollen is judged with the aid of a hand-held microscope.

O=C(O)CNCP(=O)(O)O [glyphosate, N-phosphonomethylglycine] was tested, and the “effect of the glyphosate treatment on the non-transgenic parental control plant” value [1] was “killed” and the “male sterility under field conditions” value (transgenic corn lines) was “very effective for producing male sterility”.
